Holding throughout (assay type): cell-based, human
In series [1] the test system is A549 cells. In words: Cytotoxicity as LDH release in A549 cells. The settings on record: 48 hours treatment; for LDH release, % of control at 50 µM / LDH release, % of control at 75 µM: Homo sapiens, read-out: LDH rel. % con.; for LDH release, % of control at 50 µM: A549, 50 μM; for LDH release, % of control at 75 µM / LDH rel. % con.: A549, 75 μM. How it is done: (§1) Cell lines and culture conditions. Human lung epithelial cancer (A549), human leukemia HL-60 and human prostate (PC-3) tumor cells were purchased from ATCC (Manassas, Va.). A549 and PC-3 cells were grown in Ham's F12 medium (F12) and Kaighn's modification of Ham's F12 medium (F12K) with 2 mM L-glutamine (ATCC), respectively, supplemented with 10% fetal bovine serum (FBS) and 5% pen/strep (10,000 unit, Cellgro). HL-60 cells were grown in Iscove's modified Dulbecco's medium with 4 mM L-glutamine (ATCC) supplemented with 20% FBS and 5% pen/strep. Cell were grown in T-75 flask at 37° C. and 5% CO2 air atmosphere and in 24-well plates for GSH levels and LDH release measurements.
(§2) Assessment of cytotoxicity. In one exemplary method, membrane integrity of A549, HL-60 and PC-3 cells was used as an index of drug-induced cytotoxicity, and was assessed by monitoring the release of cytosolic lactate dehydrogenase (LDH). LDH activity was measured in the culture medium and cell lysates (50 mM HEPES, Triton X-100 0.5%, pH 7) using a plate reader format as previously described (41). Briefly, 5 μl of cell culture supernatant and lysates were incubated with 0.24 mM NADH in a Tris/NaCl pH 7.2 buffer in 96-well plates for 5 min at 25° C. The reaction was started by the addition of 9.8 mM pyruvate and the consumption of NADH followed at 340 nm for 5 min at 30° C. Percent LDH release was calculated by the following: (supernatant LDH/supernatant LDH+lysate LDH)×100.

The subject of series [2] is A549 cells. In words: Intracellular GSH levels by HPLC-EC in A549 cells. The conditions noted are these: for activity at 50 µM: A549, 50 μM; for activity at 25 µM / Intracellular GSH levels, % compared to control / Int. GSH % con.: A549, 25 μM. As to the method:
as §1
(§3) Intracellular levels of GSH. Intracellular GSH levels can be determined by HPLC-EC. Cultured cells from 24-well plates were washed once with 1 ml of PBS and then re-suspended in 0.5 ml of distilled water with 40 μM of digitonin (2 mM stock solution in DMSO) for 30 min at room temperature. Then, 50 μl of 10% meta-phosphoric acid were added (1% final concentration), the samples were sonicated for 2 min, centrifuged at 20,000 g for 10 min, and 0.2 ml of supernatant placed in vials for HPLC analysis. […] The flow rate was […]. The retention time for GSH in these conditions was 7.5 min. The HPLC instrument was from ESA, Inc. (Chelmsford, Mass.), equipped with an autosampler (model 540) and a Coul array detector (model 5600A). The potential applied was +0.75 V vs. H/Pd electrode, and the injection volume 5 μl.

Series [3] deals with HL-60 cells. In words: Cytotoxicity as LDH release in HL-60 cells. The settings on record: for toxicity: HL-60 cells; for LDH release, % of control at 25 µM / LDH release, % of control at 50 µM: Homo sapiens, read-out: LDH rel. % con.; for LDH release, % of control at 25 µM: HL-60, 25 μM; for LDH release, % of control at 25 µM / LDH release, % of control at 50 µM / LDH rel. % con.: 48 hours treatment; for LDH release, % of control at 50 µM / LDH rel. % con.: HL-60, 50 μM. As to the method: as §1, §2
In general terms: LDH in the medium is a marker of cell lysis.

Series [4] has as its system PC-3 cells. In words: Intracellular GSH levels by HPLC-EC in PC-3 cells. The conditions noted are these: for activity at 25 µM / activity at 50 µM: Homo sapiens, read-out: Int. GSH % con.; for activity at 25 µM / Int. GSH % con.: PC-3, 25 μM; for activity at 25 µM / activity at 50 µM / Int. GSH % con.: 24 hours treatment; for activity at 50 µM: PC-3, 50 μM. How it is done: as §1, §3

For series [5], the system named is HL-60 cells. In words: Intracellular GSH levels by HPLC-EC in HL-60 cells. The conditions noted are these: for effect on intracellular GSH (words): HL-60 cells; for activity at 25 µM: HL-60, 25 μM. As to the method: as §1, §3
In series [6] the test system is PC-3 cells. In words: Cytotoxicity as LDH release in PC-3 cells. The settings on record: PC-3, 50 μM, 48 hours treatment; for LDH release, % of control at 50 µM: Homo sapiens, read-out: LDH rel. % con. As to the method:
as §1, §2

Where [7] appears, read: Homo sapiens, 24 hours treatment, read-out: Int. GSH % con.
[8] abbreviates: Homo sapiens, HL-60, 50 μM, 24 hours treatment, read-out: Int. GSH % con.
Setting [9] is: Homo sapiens, 2 h, read-out: Intracellular GSH levels, % compared to control.
The mark [10] stands for this setting: Homo sapiens, 4 h, read-out: Intracellular GSH levels, % compared to control.

SMILES strings stand for the structures. Read-outs that look alike come from different tables or passages of the source.

As for `COc1cc([C@@H]2c3cc4c(cc3[C@@H](O[C@@H]3O[C@@H]5CO[C@@H](C)O[C@H]5[C@H](O)[C@H]3O)[C@H]3COC(=O)[C@H]23)OCO4)cc(OC)c1O` [Etoposide, reference compound], the figures for the LDH release, % of control at 50 µM in the series with A549 cells [1] and in the series on PC-3 cells [6] were 294% and 124%, respectively. Besides, in the series on A549 cells [2] (setting [7]), the activity at 50 µM is 55%. For the same compound, in the series with HL-60 cells [3], the “toxicity” value is on record as “toxic”. The LDH release, % of control at 25 µM with HL-60 cells [3] was determined as 290%. For the same compound, the activity at 25 µM worked out at 83% in the series with PC-3 cells [4] and 7% in the series with HL-60 cells [5] (setting [7]). Further, in the series on HL-60 cells [5], the “effect on intracellular GSH (words)” value is recorded as “relatively effective for depleting GSH”.
Take `O=c1c(O)c(-c2ccc(O)c(O)c2)oc2cc(O)ccc12` [Fisetin]: in the series on A549 cells [1], the LDH release, % of control at 75 µM worked out at 267%. Besides, the activity at 50 µM stood at 50% in the series on A549 cells [2] (setting [7]), 100% with PC-3 cells [4] and 16% with HL-60 cells [5] (setting [8]). The “toxicity” value in the series with HL-60 cells [3] is “toxic”. In addition, the LDH release, % of control at 50 µM was determined as 166% in the series on HL-60 cells [3] and 109% with PC-3 cells [6]. The “effect on intracellular GSH (words)” value in the series on HL-60 cells [5] is “relatively effective for depleting GSH”.
As for `O=c1cc(-c2ccccc2)oc2ccccc12` [Flavone, flavone], the LDH release, % of control at 75 µM with A549 cells [1] turned out to be 164%. Also, the activity at 25 µM is 89.7 ± 0.6% in the series with A549 cells [2] (setting [9]), 29.7 ± 4.8% with A549 cells [2] (setting [10]), under 5% in the series on A549 cells [2] (setting [7]) and 84% in the series with PC-3 cells [4]. Besides, the LDH release, % of control at 50 µM with HL-60 cells [3] stood at 116%; with PC-3 cells [6] it was 91%. For the same compound, in the series with HL-60 cells [5] (setting [8]), the activity at 50 µM is 85%.
Regarding `O=c1c(O)c(-c2ccccc2)oc2cc(O)cc(O)c12` [Galangin, 3,5,7 trihydroxyflavone], the LDH release, % of control at 75 µM in the series with A549 cells [1] worked out at 155%. The activity at 25 µM with A549 cells [2] (setting [9]) was 62.9 ± 0.4%; in the series on A549 cells [2] (setting [7]), under 5%; with PC-3 cells [4], 68%. The LDH release, % of control at 50 µM was determined as 114% in the series on HL-60 cells [3] and 140% with PC-3 cells [6]. Moreover, the activity at 50 µM with HL-60 cells [5] (setting [8]) amounted to 69%.
With `O=c1c(-c2ccc(O)cc2)coc2cc(O)cc(O)c12` [Genistein], the “LDH rel. % con.” value was 350 % con with A549 cells [1], 160 % con with HL-60 cells [3] and 131 % con with PC-3 cells [6]. Besides, the “Intracellular GSH levels, % compared to control” value in the series with A549 cells [2] (4 h) was found to be 34.8 ± 1.1%. Also, the “Int. GSH % con.” value in the series with A549 cells [2] (24 hours treatment) was found to be 5 % con; in the series with PC-3 cells [4] it was 81 % con; in the series on HL-60 cells [5] (HL-60, 75 μM, 24 hours treatment), 57 % con.
On to `O=c1c(O)c(-c2ccc(O)cc2)oc2cc(O)cc(O)c12` [Kaempferol, 3,5,7,4′quadrahydroxyflavone], for which the “LDH rel. % con.” value is listed as 173 % con in the series on A549 cells [1], 128 % con in the series with HL-60 cells [3] and 115 % con in the series on PC-3 cells [6]. Further, the “Intracellular GSH levels, % compared to control” value with A549 cells [2] (4 h) was 29.6 ± 0.9%. Besides, the “Int. GSH % con.” value in the series with A549 cells [2] (24 hours treatment) was determined as 7 % con; with PC-3 cells [4], 77 % con; in the series on HL-60 cells [5] (HL-60, 50 μM, 24 hours treatment) it was 75 % con.
`CN(C)C(=O)CCSC(SCCC(=O)O)c1cccc(/C=C/c2ccc3ccc(Cl)cc3n2)c1` (stereo not drawn) [MK-571, reference compound]: the LDH release, % of control at 50 µM with A549 cells [1] stood at 249%; with PC-3 cells [6] it was 143%. Further, the activity at 25 µM with A549 cells [2] (setting [9]) is 62.6 ± 4.9%; in the series with A549 cells [2] (setting [10]) it was under 5%; in the series with A549 cells [2] (setting [7]) it was under 5%; in the series on PC-3 cells [4], 41%; in the series on HL-60 cells [5] (setting [7]), 40%. The LDH release, % of control at 25 µM in the series on HL-60 cells [3] is 169%.
Turning to `O=c1c(O)c(-c2ccc(O)cc2O)oc2cc(O)cc(O)c12` [Morin], the LDH release, % of control at 75 µM with A549 cells [1] was 112%. Besides, the activity at 75 µM in the series with A549 cells [2] (Homo sapiens, A549, 75 μM, 24 hours treatment, read-out: Int. GSH % con.) worked out at 72%; in the series on HL-60 cells [5] (Homo sapiens, HL-60, 75 μM, 24 hours treatment, read-out: Int. GSH % con.), 86%. For the same compound, the results for the LDH release, % of control at 50 µM in the series with HL-60 cells [3] and in the series with PC-3 cells [6] were 97% and 80%, respectively. The activity at 50 µM with PC-3 cells [4] came out at 125%. The “effect on intracellular GSH (words)” value in the series with PC-3 cells [4] (PC-3 cells, 50-75 μM) is recorded as “stimulated an increase in intracellular GSH”.

(Values after US7790762B2, “Compounds and methods for thiol-containing compound efflux and cancer treatment” (National Jewish Health, priority 2002, dated 2010).)
